# Test results published in patent publication US10759777B2, “Carbazole-containing amides, carbamates, and ureas as cryptochrome modulators” (Synchronicity Pharma, Inc., priority 2014, dated 2020).
# Assays:
# [1] = Pharmacokinetic analysis in ICR mice; format: in vivo; details: mouse, 50 mg/kg P.O.
# Procedure: Male ICR mice (weighing 30-40 g, Charles River Laboratories) were used for the experiment with n=3 mice for each experimental group (27 mice total for the study). […] Blood and liver tissue were collected at the following time points after administration: 15, 30, 60, 90 minutes, 3, 6, 12 and 24 hours. A control group of animals (TO) was also sampled. Animals were euthanized with C02 and the blood collected from the heart using cardiac puncture, transferred to an EDTA tube, and then centrifuged at 5400 rpm for 5 minutes at 4° C. The resultant plasma was frozen using dry ice and then stored at −80° C. until ready for assay. Liver tissue was removed from each animal, 0.5 g was collected in an eppendorff, frozen and submitted for pharmacokinetic measurement. […] Raw data was analyzed using WinNonLin for PK parameters (Cmax, Tmax, elimination t^1/2, MRT (mean residence time), AUC (area under the curve)−(0-last and % extrapolated).
# [2] = tested on: db/db mouse model of type II diabetes; assay: Single dose at peak or nadir of clock gene expression, OGTT in db/db mice; format: in vivo
# Text: Mice were split into two study arms, to be dosed at either the peak or nadir of Cry1 and Bmal1 gene expression. […] Mice dosed at ZT10 were fasted beginning at 8:30 am in the same manner.
# Significance was accepted when p<0.05.
# [3] = tested on: core clock genes Per2, Bmal1, Cry2 in liver; assay: Four day study, liver core clock gene mRNA in ICR mice; format: in vivo, mouse; details: 50 mg/kg PO BID 4 days
# Procedure: Male ICR mice (weighing 30-35 g), obtained from Charles River Laboratories (Hollister, Calif.), were used for the experiment following at least 3 days of acclimation. Mice were dosed with vehicle (WFI or 10% Kolliphor) or compound (50 mg/kg, dose volume 5 mL/kg, PO) for 4 days BID (twice a day), beginning in the afternoon of the first day. The last dose of compound or vehicle was administered on the morning of harvest. On the day of harvest (6 hours following the final dose), mice were euthanized by CO2 asphyxiation and 50 mg of liver tissue was excised and placed in a tube containing 500 μl of RNA later.
# E.Z.N.A.® HP Total RNA Isolation Kits (R6812-01 and the protocol described in the Manual, Revised 2010) were utilized to prepare and isolate RNA from the liver samples. To prepare the RNA samples, 10-30 mg of sample was removed from RNA-Later and placed in a 1.5 ml microfuge tube. GTC lysis buffer (700 μl) was added to the tissue, which was homogenized with a rotor-stator homogenizer (e.g. Tissue-Tearor, Model #985370 BioSpec Products with 4.5 mm probe, Cat. #985370-04), and then centrifuged at full speed (≥13,000×g) for 5 minutes. The cleared supernatant was transferred by pipetting to a DNA Clearance Column Pre-inserted in a 2 mL Collection Tube. The assembled column was centrifuged at 13,000×g for 1 minute, and the flow-through was saved. An equal volume (700 μl) of 70% ethanol was added to the lysate and mixed. The sample was then applied to a HiBind RNA spin column placed into a 2 ml collection tube, which was centrifuged at 10,000×g for 60 seconds at room temperature. RNA Wash Buffer I (250 μl) was added by pipetting directly onto a new HiBind RNA column inserted in a 2 ml collection tube. The assembled column was centrifuged at 10,000×g for 60 seconds. The RNA column was placed into a new 2 ml collection tube. DNase I stock solution is pipetted (75 μl) directly onto the surface of the HiBind RNA resin in each column (Using DNAse Digestion with RNase Free DNase Set (E1091): for each HiBind RNA column, the DNase I stock solution was prepared as followed: E.Z.N.A.® DNase I Digestion Buffer 73.5 μl, RNase Free DNase I (20 Kunitz/μl) 1.5 μl=Total Volume 75 μl). The column with bound RNA was incubated at room temperature (25-30° C.) for 15 minutes. RNA Wash Buffer I (500 μl) was added to the column and placed on a bench top for 2 minutes. After centrifuging at 10,000×g for 60 seconds, discarding the flow-through, 500 μl of RNA Wash Buffer II was added and centrifuged at 10,000×g for 60 seconds. Another 500 μl of RNA Wash Buffer II was added and the column assembly was centrifuged at 10,000×g for 60 seconds. The column was centrifuged for 2 minutes at maximum speed to completely dry the HiBind matrix. The column was placed in a clean 1.5 ml microcentrifuge tube and 40-70 μl of molecular biology grade water is added. After sitting for 1 minute, the column was centrifuged for 2 minutes at maximum speed to elute the RNA. The isolated RNA was collected into the collection tube.
# RediPlate 96 RiboGreen RNA Quantification Kit (Invitrogen) RediPlate standard curve was prepared by transferring 20 l reconstituted RNA standard to a RediPlate well reconstituted in 180 l RediPlate TE buffer. For liver RNAs prepared from 30-100 mg of tissue using a kit similar to the Omega Bio-Tek HP Total RNA Kit and eluted in RNAse-free water in a volume of 50 l (microliters), 5 l of the total RNA is diluted in 195 l of RediPlate TE buffer (1:40 dilution of RNA), mix. After transferring 5 l to RediPlate well reconstituted in 195 l TE buffer and incubating 10 min. at RT, Fluorescence Intensity of wells with standards and samples were read in a Tecan M200 with Excitation set at 480 nm and Emission set at 520 nm with the gain set to ˜70%. Alternatively, one can use the FlexStation 3 with Ex 488 nm and Em 525 nm and a Cutoff of 515 nm.
# [4] = Pharmacokinetic analysis in SD rats; format: in vivo; details: plasma; rat; 50 mg/kg P.O.
# Procedure: Male SD rats (weighing 250-300 g, Charles River Laboratories) were used for the experiment with n=4 rats for each experimental group. […] Blood was collected at the following time points after administration: 15, 30, 60, 90 minutes, 3, 6, 12 and 24 hours. A pre-dose sample was also collected. Animals were cannulated by technical staff at Charles River, prior to delivery at Reset. Whole blood (0.3 ml) was collected from a cannula in the right common jugular vein at each time-point. The whole blood was transferred to an EDTA tube, and then centrifuged at 5400 rpm for 5 minutes at 4° C. The resultant plasma was frozen using dry ice and then stored at −80° C. until ready for assay. 0.9% Sodium Chloride (0.3 ml) was administered for fluid replenishment after each blood draw. 0.1 ml of Sodium Heparin (500 IU/ml) was used as a lock solution after the 12 hr time-point. Samples were assayed as described above.
smiles,measurement,setting,value
"O=C1NCCN1CC(O)Cn1c2ccc(F)cc2c2cc(F)ccc21 (stereo not shown) [Compound 72, 1-(3-(3,6-difluoro-9H-carbazol-9-yl)-2-hydroxypropyl)imidazolidin-2-one]",% AUC extrapolated,[1]; liver,0.85%
same,Tmax (hr),[1]; liver,0.25 − hr
same,Tmax (hr),[1]; plasma,0.25 − hr
same,"effect on OGTT measurement, dosed at peak","[2]; 50 mg/kg PO single dose at ZT0, db/db mice",apparent effect
same,"effect on OGTT measurement, dosed at nadir","[2]; 50 mg/kg PO single dose at ZT10, db/db mice",no effect
same,reduction in glucose excursion (AUC),"[2]; 50 mg/kg PO single dose at peak (ZT0), vs vehicle",14%
same,liver Per2 expression,[3]; ZT6,suppression
same,Cry2 transcripts,[3]; liver,decrease
same,increase in Bmal1 mRNA at ZT6,[3]; liver,4 fold
same,% AUC extrapolated,[4],3.3%
